From patent US20120110703A1, “PROTEIN HAVING NOVEL PRENYLT[…] AND GENE ENCODING THE SAME” (KIRIN HOLDINGS KABUSHIKI KAISHA, priority 2009, published 2012)

Columns and labels:
H1PT1 prenyltransferase = target: T1, H1PT1 prenyltransferase (Humulus lupulus, UniProt A0A0B4ZTQ2); assay: Prenyltransferase activity of recombinant H1PT1 (yeast microsome fraction), LC-MS analysis of products; type: biochemical; conditions: for activity of transferring a prenyl group to substrate (substrate specificity): geranyl diphosphate as prenyl group donor, LCMS-IT-TOF, FIGS. 6 and 7
T1 construct: made in house; host or cells: Saccharomyces cerevisiae W303-1A-Δcoq2 (microsome fraction)
T1 sequence (A0A0B4ZTQ2 47-408): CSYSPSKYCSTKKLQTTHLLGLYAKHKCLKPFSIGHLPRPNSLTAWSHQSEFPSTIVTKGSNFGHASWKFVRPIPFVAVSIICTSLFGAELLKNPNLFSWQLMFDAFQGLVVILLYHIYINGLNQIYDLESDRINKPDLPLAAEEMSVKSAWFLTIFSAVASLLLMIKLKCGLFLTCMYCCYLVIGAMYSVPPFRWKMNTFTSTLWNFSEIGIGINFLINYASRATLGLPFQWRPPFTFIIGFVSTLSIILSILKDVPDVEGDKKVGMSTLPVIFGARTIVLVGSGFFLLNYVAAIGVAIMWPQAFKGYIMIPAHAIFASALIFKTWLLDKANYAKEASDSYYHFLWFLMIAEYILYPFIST
Protocol: (§1) The enzyme of the present invention (340 μg to 730 μg), a substrate aromatic compound (1 mM) such as flavonoid, a prenyl group donor (1 mM), and MgCl2 (20 mM) are mixed in a 100 mM Tris-HCl buffer (pH 7.5) to bring the amount of the resultant to 200 μl, and the reaction is allowed to proceed at 30° C. overnight. After the completion of the reaction, the product is extracted with ethyl acetate, dried, and dissolved in MeOH. The resultant may be analyzed using a mass spectrometer or via chromatography.
Cloned plasmids (pDR196-H1PT1 and pDR196-H1PT2) comprising each full-length sequence of the two gene clusters (H1PT1 and H1PT2) were introduced into the yeast strain (W303-1A-Δcoq2) by the lithium acetate method. Culture was conducted in 180 ml of SD-Ura liquid medium up to the logarithmic growth phase to express recombinant proteins in yeast transformants, and microsome fractions were prepared therefrom using the method of Yazaki et al. (JBC, 2002, 277, 6240-6246). The total amount of the reaction solution was adjusted to 200 μl by mixing 340 μg to 730 μg of proteins from the microsome fractions, flavonoid (1 mM), a prenyl group donor (1 mM), 20 mM MgCl2, and 100 mM Tris-HCl buffer (pH 7.5), and the reaction was allowed to proceed at 30° C. overnight. After the completion of the reaction, the product was extracted with ethyl acetate, dried, and dissolved in methanol (MeOH). The resultant was analyzed using Shimadzu LCMS-2010A and LCMS-IT-TOF (Shimadzu Corporation), TSK-GEL ODS-80Ts 2.0 mm×25 cm (TOSOH), and a solvent system (0.3% formic acid:acetonitrile=3:7) at a flow rate of 0.2 ml/min−1. […] These compounds had not been prepared via the heterologous expression system with the use of a plant-derived gene in the past. 6-Geranylnaringenin (peak c in FIG. 4) was compared with a standard sample (provided by Associate professor Tomohisa Kuzuyama, the University of Tokyo), and the same retention time and identical fragments were observed (FIG. 5). Thus, novel prenyltransferase (i.e., H1PT1 full-length: 1,224 bp, ORF: […].; H1PT2 full-length: 1,233 bp, ORF: 411 a.a.) was obtained. The amino acid sequences of proteins encoded by H1PT1 and H1PT2 are shown in SEQ ID NOs: 1 and 2, respectively. The nucleotide sequences of H1PT1 and H1PT2 are shown in SEQ ID NOs: 3 and 4, respectively. […] Thus, H1PT1 was mainly subjected to analysis as described below; however, it was also possible to analyze H1PT2 in the same manner.
The Sophora flavescens gene (JP Patent Publication (Kokai) No. 2008-220304 A) and the soybean gene (Akashi et al., Plant Physiology 149: 683-693, 2009), which are already known, are known to encode enzymes that interact with limited substrates with very high specificity. The enzymatic properties of recombinant H1PT1 were analyzed using LCMS-IT-TOF. Geranyl diphosphate was used as a prenyl group donor for prenylation of various flavonoid-associated compounds (e.g., isoliquiritigenin, sakuranetin, taxifolin, or genistein).

H1PT2 prenyltransferase = target: T2, H1PT2 prenyltransferase (Humulus lupulus, UniProt E5RP65); assay: Prenyltransferase activity of recombinant H1PT2 (yeast microsome fraction), LC-MS analysis of products; type: biochemical; conditions: flavonoid 1 mM, geranyl diphosphate 1 mM as prenyl group donor, 20 mM MgCl2, pH 7.5, 30° C. overnight; FIG. 4
T2 construct: made in house; host or cells: Saccharomyces cerevisiae W303-1A-Δcoq2 (microsome fraction)
T2 sequence (E5RP65 92-411): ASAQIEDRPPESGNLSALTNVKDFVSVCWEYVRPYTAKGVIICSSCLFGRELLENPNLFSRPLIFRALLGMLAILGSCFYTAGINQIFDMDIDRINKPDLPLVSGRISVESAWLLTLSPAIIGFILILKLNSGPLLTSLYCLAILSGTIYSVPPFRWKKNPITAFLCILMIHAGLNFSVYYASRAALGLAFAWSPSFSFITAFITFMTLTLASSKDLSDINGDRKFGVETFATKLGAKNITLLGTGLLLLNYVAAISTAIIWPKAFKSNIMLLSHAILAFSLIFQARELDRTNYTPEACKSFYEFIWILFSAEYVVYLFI
Protocol: as §1
Cloned plasmids (pDR196-H1PT1 and pDR196-H1PT2) comprising each full-length sequence of the two gene clusters (H1PT1 and H1PT2) were introduced into the yeast strain (W303-1A-Δcoq2) by the lithium acetate method. Culture was conducted in 180 ml of SD-Ura liquid medium up to the logarithmic growth phase to express recombinant proteins in yeast transformants, and microsome fractions were prepared therefrom using the method of Yazaki et al. (JBC, 2002, 277, 6240-6246). […] The resultant was analyzed using Shimadzu LCMS-2010A and LCMS-IT-TOF (Shimadzu Corporation), TSK-GEL ODS-80Ts 2.0 mm×25 cm (TOSOH), and a solvent system (0.3% formic acid:acetonitrile=3:7) at a flow rate of 0.2 ml/min−1. […]

| Compound | activity of transferring a prenyl group to substrate (substrate specificity) (H1PT1 prenyltransferase) | prenylated products from substrate (H1PT1 prenyltransferase; flavonoid 1 mM, geranyl diphosphate 1 mM as prenyl group donor, 20 mM MgCl2, pH 7.5, 30° C. overnight, FIG. 4) | prenylated products from substrate (H1PT2 prenyltransferase) |
| --- | --- | --- | --- |
| O=c1c(-c2ccc(O)cc2)coc2cc(O)cc(O)c12 [genistein] | activity of transferring a prenyl group to all substrates was observed | – | – |
| O=C(/C=C/c1ccc(O)cc1)c1ccc(O)cc1O [isoliquiritigenin] | activity of transferring a prenyl group to all substrates was observed | – | – |
| O=C1C[C@@H](c2ccc(O)cc2)Oc2cc(O)cc(O)c21 [naringenin] | – | a compound into which prenyl had been introduced at position 6 and a compound into which prenyl was deduced to have been introduced at position 8 or 3′ were detected | a compound into which prenyl had been introduced at position 6 and a compound into which prenyl was deduced to have been introduced at position 8 or 3′ were detected |
| COc1cc(O)c2c(c1)O[C@H](c1ccc(O)cc1)CC2=O [sakuranetin] | activity of transferring a prenyl group to all substrates was observed | – | – |
| O=C1c2c(O)cc(O)cc2O[C@H](c2ccc(O)c(O)c2)[C@H]1O [taxifolin] | activity of transferring a prenyl group to all substrates was observed | – | – |
